Where two headings read alike, the source gives them in different places.
Legend:
[1] = biological target: BCL2 (Homo sapiens (Human), UniProt P10415); experiment: Molecular level activity test of anti-apoptotic protein BCL2 (HTRF, binding to Bim peptide)
Summary of the method: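 Competition binding format: recombinant His-BCL2 and a biotin-Bim peptide are incubated with compound for 1 h, followed by 4 h at room temperature with HTRF detection antibodies.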

[2] = biological target: BCL2 (G101V) (Homo sapiens (Human), UniProt P10415, G101V); experiment: Molecular level activity test of anti-apoptotic protein BCL2 (G101V) (HTRF, binding to Bim peptide); conditions: inhibition of BCL2 (G101V) binding to Bim peptide, read-out: BCL-2 (G101V)
Summary of the method: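 His-tagged recombinant BCL2 (G101V) incubated 1 h with biotin-BIM peptide and compound (2% DMSO), then anti-His and streptavidin-XL665 detection reagents added for 4 h at room temperature. HTRF signal reflects compound effect on BCL2–BIM binding.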

[3] = biological target: BCL2 (D103Y) (Homo sapiens (Human), UniProt P10415, D103Y); experiment: Molecular level activity test of BCL2 (D103Y) (HTRF, binding to Bim peptide); conditions: read-out: BCL-2 (D103Y) (nM) (inhibitory activity, IC50)
Protocol: The detection of the binding ability between anti-apoptotic protein BCL2 (D103Y) and pro-apoptotic protein Bim was performed using Homogeneous Time-Resolved Fluorescence technology. The reaction of this method occurred in a white shallow 384-well plate, with a total reaction volume of 10 μL. Specifically, it included 2 μL of the compound to be tested (2% DMSO), 4 μL His-tagged recombinant protein, and 4 μL Biotin-tagged BIM protein peptide. After 1 hour of reaction, 5 μL of each Anti-His and streptavidin-tagged XL665 antibody diluents diluted with a detection buffer were added. After incubating at room temperature for 4 hours, the values were read using the Envision multifunctional microplate reader to detect the effect of the compound to be tested on the binding ability of BCL2 (D103Y) to BIM protein peptides.

[4] = system: RS4; 11 cells; experiment: Tumor proliferation inhibitory activity test (MTS) on RS4; 11; assay type: cell-based; conditions: Homo sapiens, RS4-11, 72 h, 3 days incubation
Protocol: The cell proliferation inhibitory ability of the compounds on RS4; 11 was tested using the MTS method. MTS is a tetrazolium blue salt compound that can be reduced by various dehydrogenases in live cell mitochondria to their respective colored methylzan products. Its color depth is highly correlated with the number of live cells in certain sensitive cell lines within a certain range. RS4; 11, RS4; 11 (BCL-2-G101V) and MOLT-4 tumor cells were cultivated separately and collected, 180 μL of cell suspension was added to each well in a 96-well cell plate, 20 μL of DMSO with a final concentration of 0.2% was added to the control cell wells, 20 μL of gradient diluted compounds were added to cell wells, and the treated cells were incubated in a 5% CO2 incubator at 37° C. for 3 days. After the incubation was completed, the reaction solution was prepared according to the MTS reagent kit, 20 μL was added per well and incubated in a 5% CO2 incubator at 37° C. for 3-4 hours. The absorbance value at 490 nm was read using an enzyme-linked immunosorbent assay (ELISA) plate, and the absorbance value at 690 nm was used as the background value, with OD490 nm-OD690 nm as the final raw data. The formula for calculating the inhibition ratio of compounds was as follows: inhibition ratio=(ODDMSO−ODCompound)/(ODDMSO−ODblank)×100%.

[5] = biological target: BCL-XL (Homo sapiens (Human), UniProt Q07817); experiment: BCL-XL enzyme molecular level activity test (HTRF, binding to BIM peptide); conditions: binding of BCL-XL to BIM peptide, values in nM, read-out: BCL-XL inhibitory activity (IC50)
Summary of the method: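 HTRF binding assay: His-tagged recombinant BCL-XL with biotin-BIM peptide and compound (2% DMSO), 1 h. Anti-His and streptavidin-XL665 detection reagents added, 4 h at room temperature. Excitation 320 nm; 665/615 nm ratio reflects binding, with no-protein background and no-compound full-binding controls.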

[6] = HTRF, binding of BCL2 to Bim peptide, read-out: BCL2 nM (inhibitory activity, IC50)

Sequence of BCL-XL (Q07817 whole entry): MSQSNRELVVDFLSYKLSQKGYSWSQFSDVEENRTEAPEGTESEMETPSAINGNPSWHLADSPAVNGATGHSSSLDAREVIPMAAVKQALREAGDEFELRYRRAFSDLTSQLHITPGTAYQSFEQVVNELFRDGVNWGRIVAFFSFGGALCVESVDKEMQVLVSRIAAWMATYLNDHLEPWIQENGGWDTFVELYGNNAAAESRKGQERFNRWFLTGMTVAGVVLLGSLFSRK

SMILES | IC50 [1, 6] | IC50 [2] | IC50 [3] | IC50 [4] | IC50 [5] | IC50 [1]
CC(C)c1ccccc1[C@@H]1CN(Cc2ccc(CN3CCCC3)cc2)CCN1C1CC2(CCN(c3cc(Oc4cnc5[nH]ccc5c4)c(C(=O)NS(=O)(=O)c4ccc(NCC5(F)CCOCC5)c([N+](=O)[O-])c4)cc3F)CC2)C1 [compound 245, (R)-2-((1H-pyrrolo[2,3-b]pyrid-5-yl)oxy)-5-fluoro-N-((4-(((4-fluorotetrahydro-2H-pyran-4-yl)methyl)amino)-3-nitrophenyl)sulfonyl)-4-(2-(2-(2-isopropylphenyl)-4-(4-(pyrrolidin-1-ylmethyl)benzyl)piperazin-1-yl)-7-azaspiro[3.5]non-7-yl)benzamide] | < 0.01 µM | < 0.01 µM | < 10 nM | 0.0005 to 0.001 µM | > 500 nM | –
CNCc1ccc(CN2CCN(C3CC4(CCN(c5cc(Oc6cnc7[nH]ccc7c6)c(C(=O)NS(=O)(=O)c6ccc(NCC7(F)CCOCC7)c([N+](=O)[O-])c6)cc5F)CC4)C3)[C@H](c3ccccc3C(C)C)C2)cc1OC [compound 246, (R)-2-((1H-pyrrolo[2,3-b]pyrid-5-yl)oxy)-5-fluoro-N-((4-(((4-fluorotetrahydro-2H-pyran-4-yl)methyl)amino)-3-nitrophenyl)sulfonyl)-4-(2-(2-(2-isopropylphenyl)-4-(3-methoxy-4-((methylamino)methyl)benzyl)piperazin-1-yl)-7-azaspiro[3.5]non-7-yl)benzamide] | < 0.01 µM | < 0.01 µM | < 10 nM | 0.0005 to 0.001 µM | > 500 nM | –
COc1cc(CN2CCN(C3CC4(CCN(c5cc(Oc6cnc7[nH]ccc7c6)c(C(=O)NS(=O)(=O)c6ccc(NCC7(F)CCOCC7)c([N+](=O)[O-])c6)cc5F)CC4)C3)[C@H](c3ccccc3C(C)C)C2)ccc1CN1CCCC1 [compound 248, (R)-2-((1H-pyrrolo[2,3-b]pyrid-5-yl)oxy)-5-fluoro-N-((4-(((4-fluorotetrahydro-2H-pyran-4-yl)methyl)amino)-3-nitrophenyl)sulfonyl)-4-(2-(2-(2-isopropylphenyl)-4-(3-methoxy-4-(pyrrolidin-1-ylmethyl)benzyl)piperazin-1-yl)-7-azaspiro[3.5]non-7-yl)benzamide] | < 0.01 µM | < 0.01 µM | < 10 nM | 0.0005 to 0.001 µM | > 500 nM | –
CNCc1cc(CN2CCN(C3CC4(CCN(c5cc(Oc6cnc7[nH]ccc7c6)c(C(=O)NS(=O)(=O)c6ccc(NCC7(F)CCOCC7)c([N+](=O)[O-])c6)cc5F)CC4)C3)[C@H](c3ccccc3C(C)C)C2)ccc1OC [compound 249, (R)-2-((1H-pyrrolo[2,3-b]pyrid-5-yl)oxy)-5-fluoro-N-((4-(((4-fluorotetrahydro-2H-pyran-4-yl)methyl)amino)-3-nitrophenyl)sulfonyl)-4-(2-(2-(2-isopropylphenyl)-4-(4-methoxy-3-((methylamino)methyl)benzyl)piperazin-1-yl)-7-azaspiro[3.5]non-7-yl)benzamide] | < 0.01 µM | < 0.01 µM | < 10 nM | 0.0005 to 0.001 µM | > 500 nM | –
COc1ccc(CN2CCN(C3CC4(CCN(c5cc(Oc6cnc7[nH]ccc7c6)c(C(=O)NS(=O)(=O)c6ccc(NCC7(F)CCOCC7)c([N+](=O)[O-])c6)cc5F)CC4)C3)[C@H](c3ccccc3C(C)C)C2)cc1CN(C)C [compound 250, (R)-2-((1H-pyrrolo[2,3-b]pyrid-5-yl)oxy)-4-(2-(4-(3-((dimethylamino)methyl)-4-methoxybenzyl)-2-(2-isopropylphenyl)piperazin-1-yl)-7-azaspiro[3.5]non-7-yl)-5-fluoro-N-((4-(((4-fluorotetrahydro-2H-pyran-4-yl)methyl)amino)-3-nitrophenyl)sulfonyl)benzamide] | < 0.01 µM | < 0.01 µM | < 10 nM | 0.0005 to 0.001 µM | > 500 nM | –
COc1ccc(CN2CCN(C3CC4(CCN(c5cc(Oc6cnc7[nH]ccc7c6)c(C(=O)NS(=O)(=O)c6ccc(NCC7(F)CCOCC7)c([N+](=O)[O-])c6)cc5F)CC4)C3)[C@H](c3ccccc3C(C)C)C2)cc1CN1CCCC1 [compound 251, (R)-2-((1H-pyrrolo[2,3-b]pyrid-5-yl)oxy)-5-fluoro-N-((4-(((4-fluorotetrahydro-2H-pyran-4-yl)methyl)amino)-3-nitrophenyl)sulfonyl)-4-(2-(2-(2-isopropylphenyl)-4-(4-methoxy-3-(pyrrolidin-1-ylmethyl)benzyl)piperazin-1-yl)-7-azaspiro[3.5]non-7-yl)benzamide] | < 0.01 µM | < 0.01 µM | < 10 nM | 0.0005 to 0.001 µM | > 500 nM | –
COc1ccc(CN2CCN(C3CC4(CCN(c5cc(Oc6cnc7[nH]cc(F)c7c6)c(C(=O)NS(=O)(=O)c6ccc(NCC7(F)CCOCC7)c([N+](=O)[O-])c6)cc5F)CC4)C3)[C@H](c3ccccc3C(C)C)C2)cc1OC [compound 253, (R)-4-(2-(4-(3,4-dimethoxybenzyl)-2-(2-isopropylphenyl)piperazin-1-yl)-7-azaspiro[3.5]non-7-yl)-5-fluoro-2-((3-fluoro-1H-pyrrolo[2,3-b]pyrid-5-yl)oxy)-N-((4-(((4-fluorotetrahydro-2H-pyran-4-yl)methyl)amino)-3-nitrophenyl)sulfonyl)benzamide] | – | < 0.01 µM | < 10 nM | 0.0005 to 0.001 µM | > 500 nM | < 0.01 µM
COc1ccc(CN2CCN(C3CC4(CCN(c5cc(Oc6cnc7[nH]cc(F)c7c6)c(C(=O)NS(=O)(=O)c6ccc(NCC7(F)CCOCC7)c([N+](=O)[O-])c6)cc5F)CC4)C3)[C@H](c3ccccc3C(C)C)C2)cn1 [compound 254, (R)-5-fluoro-2-((3-fluoro-1H-pyrrolo[2,3-b]pyrid-5-yl)oxy)-N-((4-(((4-fluorotetrahydro-2H-pyran-4-yl)methyl)amino)-3-nitrophenyl)sulfonyl)-4-(2-(2-(2-isopropylphenyl)-4-((6-methoxypyrid-3-yl)methyl)piperazin-1-yl)-7-azaspiro[3.5]non-7-yl)benzamide] | < 0.01 µM | < 0.01 µM | < 10 nM | 0.0005 to 0.001 µM | > 500 nM | –
CC(C)c1ccccc1[C@@H]1CN(Cc2cnn(C)c2)CCN1C1CC2(CCN(c3cc(Oc4cnc5[nH]cc(F)c5c4)c(C(=O)NS(=O)(=O)c4ccc(NCC5(F)CCOCC5)c([N+](=O)[O-])c4)cc3F)CC2)C1 [compound 255, (R)-5-fluoro-2-((3-fluoro-1H-pyrrolo[2,3-b]pyrid-5-yl)oxy)-N-((4-(((4-fluorotetrahydro-2H-pyran-4-yl)methyl)amino)-3-nitrophenyl)sulfonyl)-4-(2-(2-(2-isopropylphenyl)-4-((1-methyl-1H-pyrazol-4-yl)methyl)piperazin-1-yl)-7-azaspiro[3.5]non-7-yl)benzamide] | < 0.01 µM | < 0.01 µM | < 10 nM | 0.0005 to 0.001 µM | > 500 nM | –
COc1ccc(CN2CCN(C3CC4(CCN(c5ccc(C(=O)NS(=O)(=O)c6cc([N+](=O)[O-])c(NCC7CCOCC7)c7[nH]cnc67)c(Oc6cnc7[nH]ccc7c6)c5)CC4)C3)[C@H](c3ccccc3C(C)C)C2)cc1 [compound 260] | < 0.01 µM | < 0.01 µM | < 10 nM | < 0.0005 µM | > 500 nM | –

Reference: patent US20250034135A1, “ANTI-APOPTOTIC PROTEIN BCL-2 INHIBITOR, PHARMACEUTICAL COMPOSITION AND USES THEREOF” (HANGZHOU HEALZEN THERAPEUTICS CO., LTD., priority 2021, published 2025)
